Laboratory results taken from the supplement of paper PMC13207355.

Legend:
Details in all cases: exposure time: 72 h
E57 [1] = patient-derived glioblastoma stem cells of mesenchymal subtype; test: surviving fraction (nuclei count normalised to DMSO); higher = more cells surviving (less toxic)
FT3469 [2] = normal neural stem cell line; test: as above
E34 [3] = patient-derived glioblastoma stem cells of proneural subtype; test: as above
E28 [4] = patient-derived glioblastoma stem cells of classical subtype; test: as above
E13 [5] = patient-derived glioblastoma stem cells of classical subtype; test: as above
E21 [6] = patient-derived glioblastoma stem cells of mesenchymal subtype; test: as above
E31 [7] = patient-derived glioblastoma stem cells of proneural subtype; test: as above
E57 [8] = test: phenotypic distance (Euclidean, principal components) from DMSO controls (arbitrary units); higher = stronger morphological change
FT3469 [9] = test: as above
E34 [10] = test: as above
E28 [11] = test: as above
E13 [12] = test: as above
E21 [13] = test: as above
E31 [14] = test: as above
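Wherever phenotypic distance (Euclidean, principal components) from DMSO controls is given: cell Painting imaging in 384-well plates, CellProfiler features reduced to at least 20 principal components, Euclidean distance versus same-plate DMSO vehicle wells (0.1% v/v), median over six images per well.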
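Wherever surviving fraction (nuclei count normalised to DMSO) is given: nuclei counted by high-content imaging of Hoechst-stained cells in laminin-coated 384-well plates, relative to 0.1% DMSO vehicle wells, with staurosporine as cell-death control.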

CC1CNc2c(cccc2S(=O)(=O)N[C@@H](CCCNC(=N)N)C(=O)N2CC[C@@H](C)C[C@@H]2C(=O)O)C1 (stereo partly drawn) [Argatroban]
Details	phenotypic distance	surviving fraction
E13 [5], 4.1 nM	–	0.887
E13 [5], 12.3 nM	–	0.726
E13 [5], 37 nM	–	1.06
E13 [5], 111.1 nM	–	0.787
E13 [5], 333.3 nM	–	1.03
E13 [5], 1000 nM	–	0.955
E13 [5], 3000 nM	–	1.04
E13 [12], 4.1 nM	0.936	–
E13 [12], 12.3 nM	1.03	–
E13 [12], 37 nM	0.706	–
E13 [12], 111.1 nM	0.818	–
E13 [12], 333.3 nM	0.637	–
E13 [12], 1000 nM	0.667	–
E13 [12], 3000 nM	0.543	–
E21 [6], 4.1 nM	–	0.935
E21 [6], 12.3 nM	–	0.953
E21 [6], 37 nM	–	0.963
E21 [6], 111.1 nM	–	0.778
E21 [6], 333.3 nM	–	1.07
E21 [6], 1000 nM	–	1.08
E21 [6], 3000 nM	–	1.11
E21 [13], 4.1 nM	1.43	–
E21 [13], 12.3 nM	0.727	–
E21 [13], 37 nM	1.18	–
E21 [13], 111.1 nM	0.876	–
E21 [13], 333.3 nM	1.26	–
E21 [13], 1000 nM	1.01	–
E21 [13], 3000 nM	1.26	–
E28 [4], 4.1 nM	–	0.975
E28 [4], 12.3 nM	–	0.963
E28 [4], 37 nM	–	0.877
E28 [4], 111.1 nM	–	1.3
E28 [4], 333.3 nM	–	1.01
E28 [4], 1000 nM	–	1.14
E28 [4], 3000 nM	–	1.16
E28 [11], 4.1 nM	0.894	–
E28 [11], 12.3 nM	0.602	–
E28 [11], 37 nM	0.844	–
E28 [11], 111.1 nM	0.794	–
E28 [11], 333.3 nM	0.356	–
E28 [11], 1000 nM	0.549	–
E28 [11], 3000 nM	0.893	–
E31 [7], 4.1 nM	–	1.08
E31 [7], 12.3 nM	–	0.893
E31 [7], 37 nM	–	0.911
E31 [7], 111.1 nM	–	0.95
E31 [7], 333.3 nM	–	0.959
E31 [7], 1000 nM	–	1.04
E31 [7], 3000 nM	–	1.12
E31 [14], 4.1 nM	0.911	–
E31 [14], 12.3 nM	0.664	–
E31 [14], 37 nM	0.863	–
E31 [14], 111.1 nM	0.601	–
E31 [14], 333.3 nM	2.25	–
E31 [14], 1000 nM	0.919	–
E31 [14], 3000 nM	0.822	–
E34 [3], 4.1 nM	–	1.04
E34 [3], 12.3 nM	–	1.04
E34 [3], 37 nM	–	0.976
E34 [3], 111.1 nM	–	0.935
E34 [3], 333.3 nM	–	1.05
E34 [3], 1000 nM	–	1.13
E34 [3], 3000 nM	–	0.923
E34 [10], 4.1 nM	0.682	–
E34 [10], 12.3 nM	0.667	–
E34 [10], 37 nM	0.842	–
E34 [10], 111.1 nM	0.535	–
E34 [10], 333.3 nM	0.743	–
E34 [10], 1000 nM	1.04	–
E34 [10], 3000 nM	1.26	–
E57 [1], 4.1 nM	–	1.01
E57 [1], 12.3 nM	–	1.03
E57 [1], 37 nM	–	0.918
E57 [1], 111.1 nM	–	1.04
E57 [1], 333.3 nM	–	1.04
E57 [1], 1000 nM	–	1.01
E57 [1], 3000 nM	–	0.888
E57 [8], 4.1 nM	0.489	–
E57 [8], 12.3 nM	0.826	–
E57 [8], 37 nM	0.498	–
E57 [8], 111.1 nM	0.438	–
E57 [8], 333.3 nM	0.495	–
E57 [8], 1000 nM	0.711	–
E57 [8], 3000 nM	0.963	–
FT3469 [2], 4.1 nM	–	0.74
FT3469 [2], 12.3 nM	–	0.878
FT3469 [2], 37 nM	–	0.961
FT3469 [2], 111.1 nM	–	0.906
FT3469 [2], 333.3 nM	–	1.09
FT3469 [2], 1000 nM	–	0.99
FT3469 [2], 3000 nM	–	0.886
FT3469 [9], 4.1 nM	3.82	–
FT3469 [9], 12.3 nM	1.39	–
FT3469 [9], 37 nM	0.709	–
FT3469 [9], 111.1 nM	0.753	–
FT3469 [9], 333.3 nM	0.744	–
FT3469 [9], 1000 nM	0.391	–
FT3469 [9], 3000 nM	1.07	–
